Data taken from patent publication US6869611B1, “Composition and method of effecting superficial chemical skin peels” (priority 1996, dated 2005).

How the values were obtained:
[1] = saturation concentration / solubility of salicylic acid in solvent; type: physicochemical; conditions: solution temperature of 25° C.
[2] = cited from earlier work

saturation concentration of salicylic acid in ethanol [1]: > 30 wt %
Structure (SMILES): O=C(O)c1ccccc1O [salicylic acid, 2-hydroxybenzoic acid]
solubility in water [2]: relatively insoluble in water
